{
  "source": "patent US20040028613A1",
  "about": "“Dopamine agonist formulations for enhanced central nervous system delivery” (Nastech Pharmaceutical Company Inc, priority 2001, published 2004)",
  "origin": "cited, not measured here",
  "key": {"[1]": {"tested_on": "ciliary function in epithelial cell cultures"}, "[2]": {"tested_on": "ciliary movement of human adenoid tissue", "settings": "for time in which ciliary movement was inhibited / inhibitory effect on ciliary movement at the end of 60 mm: 0.3%"}, "[3]": {"settings": "aqueous solution, physiologic pH"}, "[4]": {"settings": "subcutaneous injection"}, "[5]": {"settings": "2.5 mg to 3.5 mg, hypotension, nausea, vomiting, impaired vision, diaphoresis, ashen coloring"}, "[6]": {"settings": "intraduodenal, rats, with 1% (w/v) saline dispersion of polycarbophil"}},
  "data": [
    {"compound": "CC(C)CC(N)B(O)O", "note": "(stereo not drawn) [boro-leucine]", "values": [
      {"measurement": "effectiveness in enzyme inhibition relative to bestatin", "setting": "aminopeptidases", "result": "more than 100 times"},
      {"measurement": "effectiveness in enzyme inhibition relative to puromycin", "setting": "aminopeptidases", "result": "more than 1000 times"}
    ]},
    {"compound": "2-alkyl-4-hydroxyquinolines [pyo compound]", "values": [
      {"measurement": "concentration producing ciliostasis / inhibiting ciliary motility", "setting": "[1]", "result": 50, "unit": "µg/mL"}
    ]},
    {"compound": "Laureth-9", "values": [
      {"measurement": "time in which ciliary movement was inhibited", "setting": "[2]", "result": 10, "unit": "mm"}
    ]},
    {"compound": "C[C@H](CCC(=O)NCCS(=O)(=O)O)[C@H]1CC[C@H]2[C@@H]3[C@H](O)C[C@@H]4C[C@H](O)CC[C@]4(C)[C@H]3C[C@H](O)[C@]12C", "note": "[taurocholate, taurocholic acid]", "values": [
      {"measurement": "inhibitory effect on ciliary movement at the end of 60 mm", "setting": "[2]", "result": "no inhibitory effect"}
    ]},
    {"compound": "NCCN(CCN)/[N+]([O-])=N/O", "note": "[diethylenetriamine/NO (DETANO)]", "values": [
      {"measurement": "rate (time) of NO release", "setting": "[3]", "result": "approximately 20 hours"}
    ]},
    {"compound": "C[C@H](CCC(=O)NCC(=O)O)[C@H]1CC[C@H]2[C@@H]3[C@H](O)C[C@@H]4C[C@H](O)CC[C@]4(C)[C@H]3C[C@H](O)[C@]12C", "note": "[glycocholate, glycocholic acid]", "values": [
      {"measurement": "inhibitory effect on ciliary movement at the end of 60 mm", "setting": "[2]", "result": "no inhibitory effect"}
    ]},
    {"compound": "CN1CCc2cccc3c2[C@H]1Cc1ccc(O)c(O)c1-3", "note": "[SC Inj (ref. 1), apomorphine]", "values": [
      {"measurement": "CSF level at 20 min", "setting": "[4]; prior art, patients", "result": 1.08, "unit": "ng/mL"},
      {"measurement": "Plasma level at 20 min", "setting": "[4]; prior art, patients", "result": 25.04, "unit": "ng/mL"}
    ]},
    {"compound": "C[C@H](CCC(=O)O)[C@H]1CC[C@H]2[C@@H]3CC[C@@H]4C[C@H](O)CC[C@]4(C)[C@H]3C[C@H](O)[C@]12C", "note": "[deoxycholate, deoxycholic acid]", "values": [
      {"measurement": "time in which ciliary movement was inhibited", "setting": "[2]", "result": 20, "unit": "mm"}
    ]},
    {"compound": "CN1CCc2cccc3c2[C@H]1Cc1ccc(O)c(O)c1-3", "note": "[apomorphine]", "values": [
      {"measurement": "CSF levels of active drug as percentage of levels found in the plasma", "setting": "[4]", "result": "less than 5%"},
      {"measurement": "side effects of intranasal delivery", "setting": "[5]", "result": "extensive and serious side effects"}
    ]},
    {"compound": "CC(=O)OC1CC2(C)C(CC(O)C3C4(C)CCC(O)C(C)C4CCC32C)C1=C(CCCC(C)C)C(=O)NCCS(=O)(=O)O", "note": "(stereo not drawn) [STDHF, sodium taurodihydrofusidate]", "values": [
      {"measurement": "inhibition of ciliary movement", "setting": "[2]; concentration of 0.3%, at 60 minutes", "result": "total"}
    ]},
    {"compound": "CCN(CC)/[N+]([O-])=N/O.CCNCC", "note": "[diethylamine/NO]", "values": [
      {"measurement": "rate (time) of NO release", "setting": "[3]", "result": "< 3", "unit": "min"}
    ]},
    {"compound": "9-desglycinamide, 8-arginine vasopressin", "values": [
      {"measurement": "increase of bioavailability compared to aqueous solution without polymer", "setting": "[6]", "result": "3-5 fold"}
    ]}
  ]
}
